For series [1], the target named is T1, Peroxisome proliferator-activated receptor gamma (Homo sapiens, UniProt P37231).
T1 sequence (P37231 whole entry): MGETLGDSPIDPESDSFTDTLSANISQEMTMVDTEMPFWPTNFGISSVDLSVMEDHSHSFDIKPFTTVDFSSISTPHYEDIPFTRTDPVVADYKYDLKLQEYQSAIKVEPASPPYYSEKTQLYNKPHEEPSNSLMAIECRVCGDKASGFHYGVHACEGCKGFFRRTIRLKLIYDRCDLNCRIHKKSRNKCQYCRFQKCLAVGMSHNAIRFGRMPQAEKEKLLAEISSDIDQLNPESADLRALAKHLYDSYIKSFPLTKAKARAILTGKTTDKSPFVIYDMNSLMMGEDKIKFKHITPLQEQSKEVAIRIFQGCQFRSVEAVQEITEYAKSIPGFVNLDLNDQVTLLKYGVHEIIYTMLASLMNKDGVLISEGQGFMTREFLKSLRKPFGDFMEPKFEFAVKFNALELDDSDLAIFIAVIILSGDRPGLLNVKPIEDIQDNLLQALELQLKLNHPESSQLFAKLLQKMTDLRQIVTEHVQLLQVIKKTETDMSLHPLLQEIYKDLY
As to the kind of experiment: Agonist activity at GAL4 tagged human PPARgamma ligand binding domain expressed in HEK293 cells by luciferase reporter gene assay. The format is cell-based. On the technique in general: Reporter assays use an easily measured gene product as a stand-in for the process of interest.

The target in series [2] is T2, Peroxisome proliferator-activated receptor alpha (Homo sapiens, UniProt Q07869).
T2 sequence (Q07869 whole entry): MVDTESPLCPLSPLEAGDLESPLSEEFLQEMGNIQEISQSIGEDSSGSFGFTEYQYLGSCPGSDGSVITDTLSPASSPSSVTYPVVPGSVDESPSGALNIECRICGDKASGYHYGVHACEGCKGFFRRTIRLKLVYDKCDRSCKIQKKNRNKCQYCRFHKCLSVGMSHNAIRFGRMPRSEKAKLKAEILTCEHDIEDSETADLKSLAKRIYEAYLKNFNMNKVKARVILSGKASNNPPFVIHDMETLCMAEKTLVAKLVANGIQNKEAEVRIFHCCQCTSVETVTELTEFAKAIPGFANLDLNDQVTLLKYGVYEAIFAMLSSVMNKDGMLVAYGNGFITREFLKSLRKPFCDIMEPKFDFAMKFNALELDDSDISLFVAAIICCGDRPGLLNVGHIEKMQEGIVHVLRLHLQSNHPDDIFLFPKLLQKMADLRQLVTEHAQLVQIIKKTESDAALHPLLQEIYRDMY
As to the kind of experiment: Binding affinity to PPARalpha (unknown origin) using fluorescein-tagged dual PPARalpha/gamma activator by homogeneous fluorescence polarization binding assay. Background: Fluorescence polarisation rises when a labelled molecule tumbles more slowly, as on binding a larger partner.

Series [3] deals with T2, Peroxisome proliferator-activated receptor alpha. The series is described as follows: Agonist activity at GAL4 tagged human PPARalpha ligand binding domain expressed in HEK293 cells by luciferase reporter gene assay. The format is cell-based. To be noted: read-out: EC50.
Series [4] relates to Mus musculus. As to the kind of experiment: Antidiabetic activity in db/db mouse assessed as reduction in fasting glucose level at 10 mg/kg, po dosed once daily for 14 days. It counts as functional. Particulars: 336 h.
In series [5] the test system is Mus musculus. The series is described as follows: Lipid lowering activity in db/db mouse assessed as reduction in fasting triglyceride level at 10 mg/kg, po dosed once daily for 14 days. The format is functional. Particulars: 336 h.
The target in a further series is Cytochrome P450 2C9 (Homo sapiens, UniProt P11712). As to the kind of experiment: Inhibition of CYP2C9 (unknown origin). It counts as ADME.
Chain of Cytochrome P450 2C9 (P11712 whole entry): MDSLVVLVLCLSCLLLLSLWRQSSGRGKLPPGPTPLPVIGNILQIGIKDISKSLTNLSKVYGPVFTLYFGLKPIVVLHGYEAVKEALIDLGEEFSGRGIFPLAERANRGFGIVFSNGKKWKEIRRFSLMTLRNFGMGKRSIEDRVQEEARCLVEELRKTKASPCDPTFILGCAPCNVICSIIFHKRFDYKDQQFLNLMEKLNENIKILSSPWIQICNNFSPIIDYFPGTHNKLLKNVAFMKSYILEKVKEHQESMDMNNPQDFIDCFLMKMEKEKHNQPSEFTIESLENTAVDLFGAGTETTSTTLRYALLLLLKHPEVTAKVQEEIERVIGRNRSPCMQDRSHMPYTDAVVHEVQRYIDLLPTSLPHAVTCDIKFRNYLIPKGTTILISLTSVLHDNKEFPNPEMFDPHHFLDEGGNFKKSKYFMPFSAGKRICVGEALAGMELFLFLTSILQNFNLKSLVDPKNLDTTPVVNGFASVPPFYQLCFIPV
The target of the next series is Cytochrome P450 2C19 (Homo sapiens, UniProt P33261). The series is described as follows: Inhibition of CYP2C19 (unknown origin). It counts as ADME.
Chain of Cytochrome P450 2C19 (P33261 whole entry): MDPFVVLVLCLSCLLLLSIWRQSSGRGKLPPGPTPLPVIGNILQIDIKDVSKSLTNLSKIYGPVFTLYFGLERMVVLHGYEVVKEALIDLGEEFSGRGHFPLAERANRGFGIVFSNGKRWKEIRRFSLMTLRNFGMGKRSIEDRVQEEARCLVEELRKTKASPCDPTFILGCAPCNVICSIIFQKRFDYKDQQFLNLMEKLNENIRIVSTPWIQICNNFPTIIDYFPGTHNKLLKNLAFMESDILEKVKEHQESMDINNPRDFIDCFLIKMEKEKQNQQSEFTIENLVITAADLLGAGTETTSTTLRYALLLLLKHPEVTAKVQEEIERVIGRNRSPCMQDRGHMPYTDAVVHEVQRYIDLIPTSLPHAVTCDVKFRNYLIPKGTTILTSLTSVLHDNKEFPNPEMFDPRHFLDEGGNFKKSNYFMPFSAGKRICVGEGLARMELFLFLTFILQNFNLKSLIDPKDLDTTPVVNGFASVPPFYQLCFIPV
Series [6] is described as follows: Oral bioavailability in rat at 10 mg/kg. The format is ADME, organism-based. To be noted: in vivo.
The next series deals with Rattus norvegicus. As to the kind of experiment: Volume of distribution at steady state in rat at 10 mg/kg, po. The format is ADME, organism-based. The arrangement: dose 10 mg/kg, route oral. Particulars: in vivo.
A short description of series [7]: Half life in rat at 10 mg/kg, po. The format is ADME, organism-based. Also on record: dose 10 mg/kg, route oral. To be noted: in vivo.
In series [8] the target is T1, Peroxisome proliferator-activated receptor gamma.
Description: Binding affinity to PPARgamma (unknown origin) using fluorescein-tagged dual PPARalpha/gamma activator by homogeneous fluorescence polarization binding assay

Each structure is given as a SMILES string.

Regarding `Cc1oc(-c2ccccc2)nc1CCOc1ccc(C[C@@H]2CN(c3nccc(C(F)(F)F)n3)C[C@@H]2C(=O)O)cc1`, the values for the EC50 in series [1] and in [3] were 0.03 µM and 0.09 µM, respectively. Further, the IC50 in series [2] stood at 0.96 µM; against Cytochrome P450 2C9, 3.2 µM; against Cytochrome P450 2C19, 8.8 µM; in [8] it was 0.02 µM. For the same compound, the inhibition in vivo at 10 mg/kg stood at 37% with Mus musculus [4] and 48% in the series with Mus musculus [5]. Moreover, the bioavailability in [6] amounted to 65%. For the same compound, in the series with Rattus norvegicus, the Vdss was 0.47 L/kg. This compound also gave a half-life in series [7] of 1.54 h.

The term EC50 denotes the concentration at which the effect is half-maximal. The term IC50 denotes the concentration that gives 50% inhibition. A low value points to greater potency. For orientation: inhibition in vivo means the percentage by which the read-out fell short of the control. The bioavailability is the share of a dose that reaches the circulation, judged against a reference dose that is usually intravenous. High values mean good availability, low ones poor availability. Broadly, the half-life is the time needed for the level to fall by half in the phase considered.

Values taken from ChEMBL document CHEMBL3396995, “Synthesis and biological evaluation of novel pyrrolidine acid analogs as potent dual PPARα/γ agonists” (Bioorg Med Chem Lett, 2015).
